Data on one compound can be found in article PMC6241247, “Development and Application of an UHPLC-MS/MS Method for Comparative Pharmacokinetic Study of Eight Major Bioactive Components from Yin Chen Hao Tang in Normal and Acute Liver Injured Rats” (Evidence-based Complementary and Alternative Medicine : eCAM, 2018).

Usually Cmax stands for the highest concentration seen after dosing. As usually defined, the Tmax is the time from dosing to the highest level.

A short description of one data set: in vivo. The method, then:
The quality control (QC) and plasma samples were analyzed by an Agilent 6470 triple quadrupole LC–MS system (Agilent Technologies, Inc., Santa Clara, CA, USA), which consists of an Agilent 1290 Infinity II system connected to a triple quadrupole MS analyzer with an Agilent Jet Stream technologies electrospray ionization (ESI) interface. The Agilent 1290 LC system is equipped with degasser (G7116B), high speed pump (G7120A) and multisampler (G7167B). The samples (2 μL) were injected into the LC system. A MassHunter workstation was applied for LC–MS control and data acquisition.
Chromatographic separation was conducted with a CAPCELL PAK ADME (2.1 mm × 100 mm, 3 μm; Shiseido Co., Ltd., Tokyo, Japan). The mobile phase included 0.1% formic acid (A) and methanol (B), and the flow rate was 0.3 mL/min. Iridoid glycosides and anthraquinones were detected in the isocratic elution, which was kept 80% B for 5.5 min in the negative mode. The others were separated in the positive mode with another gradient program, which was maintained at 45% B for 0.5 min, then increased to 95% B in 2 min, and maintained at 95% B until 4.5 min, and the post time is 2 min.
The optimal parameters for the ESI interface were as follows: nebulizer, 45 psi; dry gas, 10 L/min; dry temp, 350°C; sheath gas, 11 L/min; sheath gas temp, 350°C; capillary voltage, 4000 V (in the positive mode) and 3500 V (in the negative mode); and delta EMV, 200 V. The MS parameters for iridoid glycosides and anthraquinones were improved in the negative mode, and the MS parameters for the other analytes were improved in positive mode.
The animals were randomly divided into the control group (n = 6) and the model group (n = 6): the model rats, i.e., acute liver injury rats, were induced by intraperitoneal injections of CCl4 diluted with olive oil (1:1, v/v) at a dose of 1.5 mL/kg.bw every day for three days, and the rats in the control group were administered with olive oil.
After being thawed at room temperature, 100 μL plasma was put in a 1.5 mL centrifuge tube, and then 100 μL IS solution and 300 μL acetonitrile was added. After the mixture was vortexed for 1 min, it was centrifuged at 12000 rpm for 10 min at 4°C to precipitate the protein. Then the supernatant was transferred to another clean centrifuge tube, and evaporated to dryness under nitrogen stream, the residue was reconstituted in 50 μL methanol-water (1:1, v/v). After centrifuging at 12000 rpm for 10 min at 4°C again, a 2 μL aliquot of supernatant was injected for LC–MS/MS analysis.
The validated method was used for the pharmacokinetic study. Standard diet was withheld over night before oral administration of YCHT, but with free access to water. And YCHT (60 g/kg) was administered to the rats by gastric perfusion, equivalent to 10.09 mg/kg of scoparone, 0.49 mg/kg scopoletin, 17.16 mg/kg of geniposide, 9.86 mg/kg of rhein, 2.66 mg/kg of aloe-emodin, 2.24 mg/kg of chrysophanol, 0.83 mg/kg of emodin, and 0.58 mg/kg of physcion.
A series of blood samples (0.3 mL) were collected from the rats' postorbital venous plexuses at 0 (pre-dose), 5, 10, 15, 30, 45, 60, 90, 120, 240, 480, 600, 720 and 1440 min, and put into heparinized tubes. The heparinized plasma was immediately centrifuged to separate at 3000 g for 10 min and stored at −80°C before experiments. The analytes' concentrations in plasma were determined by LC–MS/MS methods described above.
The plasma concentrations were expressed as arithmetic mean ± standard deviation (SD). And the mean concentration–time curves were calculated and plotted by DAS (version 3.0, Bio Guider Co., Shanghai, China), and the PK parameters consist of elimination half-life (t1/2), area under the plasma concentration-time curve (AUC), and mean residence time (MRT). The maximum plasma concentrations (Cmax) and corresponding peak time (Tmax) were obtained from the observed data directly.

A short description of data set [1]: Plasma pharmacokinetics after oral administration of YCHT in control (normal) rats, UHPLC-MS/MS. It counts as in vivo, Sprague-Dawley rats. Particulars: control rats, oral YCHT 60 g/kg, plasma, n = 6. The text has this: The validated method was used for the pharmacokinetic study.
P<0.05 represented statistical significance.

The next data set has as its system P-glycoprotein (P-gp). Further details: method as in PMID 25776492, PMID 26121397. Conditions: cited from earlier work.
Where [2] appears, read: Sprague-Dawley, rat, in vivo, po, 60 g/kg.
Where [3] appears, read: model (CCl4 liver injured) rats, oral YCHT 60 g/kg, plasma, n = 6.

Each structure is given as a SMILES string.

As to `Cc1cc(O)c2c(c1)C(=O)c1cc(O)cc(O)c1C2=O` [Emodin], the “Fr (relative bioavailability)” value in the data set “in vivo” (Sprague-Dawley, rat, in vivo, po) is recorded as 112.01%. The CL/F in “in vivo” (setting [2]) was 1050 mL/min/kg; in data set [1] (Sprague-Dawley, rat, in vivo, read-out: CLz/F (converted)), 1160 mL/min/kg. For the same compound, the Cmax in the data set “in vivo” (setting [2]) was found to be 3.89 ± 0.89 ng/mL; in data set [1] (Sprague-Dawley, rat, in vivo, read-out: Cmax), 3.51 ± 0.59 ng/mL. The MRT inf in “in vivo” (setting [2]) was 6.64 ± 0.78 h; in data set [1] (Sprague-Dawley, rat, in vivo, read-out: MRT0–∞), 6.65 ± 1.99 h. Further, the MRT last in “in vivo” (setting [2]) was determined as 4.83 ± 0.25 h; in data set [1] (Sprague-Dawley, rat, in vivo, read-out: MRT0–t) it was 4.94 ± 0.26 h. Further, the Tmax in the data set “in vivo” (setting [2]) worked out at 10.2 ± 3 min; in data set [1] (Sprague-Dawley, rat, in vivo, read-out: Tmax) it was 12 ± 10.2 min. In addition, the half-life in “in vivo” (setting [2]) is 218 ± 47.4 min; in data set [1] (Sprague-Dawley, rat, in vivo, read-out: t 1/2 (converted)), 200 ± 100 min. Moreover, the results for the “AUC0–t” value (in “in vivo” (setting [3]); in data set [1]) were 11.66 ± 2.70 ug/L∗h and 10.41 ± 0.83 ug/L∗h, respectively. In addition, the “AUC0–∞” value stood at 13.49 ± 2.43 ug/L∗h in the data set “in vivo” (setting [3]) and 12.06 ± 1.53 ug/L∗h in data set [1]. For the same compound, the P-gp substrate result in the data set with P-glycoprotein (P-gp) is “not P-gp substrates”.
